# Test results taken from patent publication US4956344A, “Method for treatment of lesions in the large intestinal epithelium with a tripeptide” (Hafslund Nycomed A/S, priority 1989, dated 1990).
# “And” between values parts separate entries of the source, which are not always exact repeats. Equal entries are not always repeated. Square brackets hold non-standard residues; d marks the D form. Peptide text beside a SMILES is read from it. pGlu = O=C1CC[C@@H](C(=O)O)N1
# How the values were obtained:
# [1] = test system: large intestinal epithelium; test: Mitotic rate (Colcemid-arrested metaphases) in the large intestinal epithelium after i.p. injection; assay type: in vivo, hairless mice; parameters: mitotic rate in the large intestinal epithelium, Treated group Mean / Mitotic rate, Treated: unit not given here; conditions: for cell proliferation in the large intestinal epithelium (mitotic rate), Treated: mean
# Protocol: (§1) All in vivo experiments were performed with hairless mice at 0800-0900 AM. The fractions were suspended in distilled water, slightly acidified (pH=6) and injected i.p. at different doses dependent on the purity of the fraction. The controls received solvent only. The pattern of cell proliferation after injecting the peptide was examined by varying the time between treatment and sacrifice.
# Two hours before sacrifice (except for the experiments testing tissue specificity in the kidney) all animals received Colcemid 0.15 mg per animal i.p. ^3 HTdR (tritiated thymidine) was injected 30 minutes before sacrifice (30 μCi per animal i.p.). […]
# Mitotic rate: After routine dehydration and paraffin embedding, sections were cut at 5 μm and stained with haematoxylin. Colcemid-arrested mitoses per 500 crypt cells were determined in ten longitudinally cut crypts in ileum and colon. Only crypts that were cut strictly longitudinally were accepted, viz., only those where the lumen of the crypt could be followed from the bottom of the gland to the lumen of the gut. No telophases were seen. The number of accumulated metaphases in epidermis Was determined by counting 25 vision fields of interfollicular epidermis (eyepiece 12.5, objective 40) and expressed as mitoses per vision field per 2h.
# [2] = test system: large intestinal epithelium; test: Labelling index (3HTdR-labelled crypt cells) in the large intestinal epithelium after i.p. injection; assay type: in vivo, hairless mice; parameters: key to Labelling index, Treated: fraction of labelled cells per 500 crypt cells; conditions: for Labelling index, Treated: 10^-12 mole per animal
# Protocol: as §1
# (§2) Two hours before sacrifice (except for the experiments testing tissue specificity in the kidney) all animals received Colcemid 0.15 mg per animal i.p. ^3 HTdR (tritiated thymidine) was injected 30 minutes before sacrifice (30 μCi per animal i.p.).
# Labelling index: Paraffin sections, cut at 5 μm, were dipped in Kodak-NTB emulsion and exposed for 3 weeks at 0°-4° C., developed, and stained with haematoxylin The number of labelled cells were counted per 500 crypt cells in longitudinally cut crypts as described above. Similarly, the number of labelled cells in 40 vision fields of interfollicular epidermis (eyepiece 12.5, objective 40) was determined. A cell was considered labelled when the number of grains was five or more.
# epidermis = test: Tissue specificity: mitotic rate in epidermis (back skin); assay type: in vivo, hairless mice; conditions: time and dose levels tested
# Protocol: (§3) To test for possible tissue specificity of the tripeptide the back skin and a defined part of ileum of eight animals were fixed immediately after killing. The mitotic rate (see below) in sections from these tissues was compared with the corresponding values in solvent-treated animals. Unilateral nephrectomy (uNX) was performed in four animals, and the animals were treated with the tripeptide at 18h after surgery. Controls underwent uNX and received solvent only. These animals received Colcemid 3h before sacrifice at 42h. The mitotic rate (number of accumulated metaphases per 1000 cells per 3h) was registered in the outer part of the kidney cortex.
# as §2
# (§4) Mitotic rate: After routine dehydration and paraffin embedding, sections were cut at 5 μm and stained with haematoxylin. Colcemid-arrested mitoses per 500 crypt cells were determined in ten longitudinally cut crypts in ileum and colon. Only crypts that were cut strictly longitudinally were accepted, viz., only those where the lumen of the crypt could be followed from the bottom of the gland to the lumen of the gut.
# small intestine = test: Tissue specificity: mitotic rate in small intestine (ileum); assay type: in vivo, hairless mice; conditions: time and dose levels tested
# Protocol: as §3, §2, §4
# [3] = test system: kidney tubular epithelium; test: Tissue specificity: mitotic rate in kidney cortex after unilateral nephrectomy; assay type: in vivo, hairless mice; conditions: proliferation induced by contralateral nephrectomy; treated 18h after surgery, sacrifice at 42h
# Protocol: as §3
# [4] = test system: colon carcinoma cell line HT 29; test: Proliferation of HT 29 cells, incorporation of tritiated thymidine; assay type: cell-based; conditions: for incorporation of 3HTdR, Treated (Mean): 1 % fetal calf serum, 6 hour-period
# Protocol: Cell culture: HT 29 cells, 20000 cells per well in 96-well tissue culture clusters. Medium: RPMI 1640, 1 % fetal calf serum Concentration of the tripeptide 10^-8 M, lyophilized peptide dissolved in medium.
# Assay for proliferation: Incorporation of tritiated thymidine (^3 HTdR) 6 hour-period, ^3 HTdR 1 uCi per well.
# The tripeptide was added to the culture on the third day (exponential growth), and the incorporation of tritiated thymidine was measured for 6 hour-periods at 16h, 24h, and 40h after the peptide was added to the wells.
structure (smiles),measurement,setting,value
"O=C(O)CC[C@H](NC(=O)[C@@H]1CCC(=O)N1)C(=O)N[C@@H](CC(=O)O)C(=O)N[C@@H](CO)C(=O)NCC(=O)O [pGlu-Glu-Asp-Ser-Gly (OH), reference compound] ([pGlu]EDSG-OH)",cell proliferation in the large intestinal epithelium,"[1]; 10^-12 mole per animal, doses and times tested",unchanged
"O=C(O)CNC(=O)[C@H](Cc1c[nH]cn1)NC(=O)[C@@H]1CCC(=O)N1 [pGlu-His-Gly(OH), L-pyroglutamyl-L-histidyl-glycine] ([pGlu]-His-Gly-OH)",number of accumulated metaphases,"[1]; 2-4h after injection, 10^-12 mole per animal i.p.",significantly reduced
same,"cell proliferation in the large intestinal epithelium (mitotic rate), Treated",[1]; 10^-6 mole per animal i.p.,0.047
same,"cell proliferation in the large intestinal epithelium (mitotic rate), Treated",[1]; 10^-9 mole per animal i.p.,0.044
same,inhibition of mitotic rate in the large intestinal epithelium,[1]; 10^-11 mole per animal,"smaller, but significant inhibition"
same,"cell proliferation in the large intestinal epithelium (mitotic rate), Treated","[1]; 10^-11 mole per animal i.p., p<0.05",0.021
same,reduction of the number of accumulated metaphases,[1]; 10^-12 mole per animal,more than 50%
same,"cell proliferation in the large intestinal epithelium (mitotic rate), Treated","[1]; 10^-12 mole per animal i.p., p<0.05",0.018
same,"mitotic rate in the large intestinal epithelium, Treated group Mean","[1]; 10^-12 mole per animal, synthetic peptide, seven identical experiments in mice, one line each, p<0.05",0.018 and 0.021 and 0.026 and 0.043 and 0.025
same,"cell proliferation in the large intestinal epithelium (mitotic rate), Treated",[1]; 10^-15 mole per animal i.p.,0.042
same,"cell proliferation in the large intestinal epithelium (mitotic rate), Treated",[1]; 10^-18 mole per animal i.p.,0.035
same,"Mitotic rate, Treated","[1]; 2 h after single i.p. injection, 10^-12 mole per animal",0.021
same,"Mitotic rate, Treated","[1]; 4 h after single i.p. injection, 10^-12 mole per animal",0.018
same,"Mitotic rate, Treated","[1]; 6 h after single i.p. injection, 10^-12 mole per animal",0.027
same,"Mitotic rate, Treated","[1]; 8 h after single i.p. injection, 10^-12 mole per animal",0.031
same,"Mitotic rate, Treated","[1]; 12 h after single i.p. injection, 10^-12 mole per animal",0.019
same,"Mitotic rate, Treated","[1]; 15 h after single i.p. injection, 10^-12 mole per animal",0.010
same,"Mitotic rate, Treated","[1]; 18 h after single i.p. injection, 10^-12 mole per animal",0.027
same,"Mitotic rate, Treated","[1]; 24 h after single i.p. injection, 10^-12 mole per animal",0.057
same,"mitotic rate, second effect","[1]; approximately 15h after injection, less pronounced than the first, 10^-12 mole per animal",new Wave of inhibition
same,decrease in cell proliferation in the large intestinal epithelium,[1]; doses higher than 10^-11 or lower than 10^-12 mole per animal,no significant decrease
same,mitotic count in the treated group,"[1]; thereafter, for a period of 6-8h, not formally significant, 10^-12 mole per animal",exceeded the control level
same,"reduced LI, significance",[2]; 15 and 18 h after treatment,not statistically significant
same,"Labelling index, Treated",[2]; 2 h after single i.p. injection,0.086
same,labelling index (LI),[2]; 4h after injection,pronounced reduction
same,"Labelling index, Treated",[2]; 4 h after single i.p. injection,0.067
same,"Labelling index, Treated",[2]; 6 h after single i.p. injection,0.067
same,"Labelling index, Treated",[2]; 8 h after single i.p. injection,0.058
same,"Labelling index, Treated",[2]; 12 h after single i.p. injection,0.048
same,"Labelling index, Treated",[2]; 15 h after single i.p. injection,0.068
same,"Labelling index, Treated",[2]; 18 h after single i.p. injection,0.11
same,"Labelling index, Treated",[2]; 24 h after single i.p. injection,0.098
same,"number of labelled cells, second period",[2]; approximately 8h after the first decrease,second inhibition of the same degree
same,inhibitory effect on cell proliferation in epidermis,epidermis,No inhibitory effect
same,inhibitory effect on cell proliferation in the small intestine,small intestine,No inhibitory effect
same,inhibitory effect on cell proliferation in kidney tubular epithelium,[3],No inhibitory effect
same,"incorporation of 3HTdR, Treated (Mean)","[4]; 10^-8 M, 16 h after addition of peptide",12177
same,"incorporation of 3HTdR, Treated (Mean)","[4]; 10^-8 M, 24 h after addition of peptide",9080
same,"incorporation of 3HTdR, Treated (Mean)","[4]; 10^-8 M, 40 h after addition of peptide",12485
same,incorporation of 3HTdR,"[4]; 10^-8 M, 24-30h after the treatment, 1 % serum",significant reduction
same,inhibition of 3HTdR incorporation,[4]; 10^-10 M,"less, but still significant inhibition"
same,growth of HT 29 cells with increased serum,[4]; serum addition increased to 10 &,varied between significant inhibition of growth and no effect
